Source: patent US8703922B2, “Low-viscosity liquid crystal compound” (Chemgenesis Incorporated, priority 2009, dated 2014)

Experiments:
Type in all cases: physicochemical
[1] = Liquid crystal formation in compound/water system, analysed by small-angle X-ray scattering (SAXS); details: room temperature (25° C.); for Type of liquid crystal formed (SAXS peak ratio): 50 wt % (water-excess condition); for Lattice constant (ac) of the cubic liquid crystal: SAXS
Description: Whether or not a liquid crystal structure has a cubic lattice may be determined by a small-angle X-ray scattering (SAXS) method, for the purpose of confirming whether or not it is cubic liquid crystal. First, an amphipathic compound/water system sample with a predetermined concentration can be added to an X-ray capillary tube made of quartz, for example, and the capillary tube is sealed with an oxy-fuel burner, and subjected to SAXS assay.
Ratio of Pn3m Cubic Liquid Crystal: √{square root over (2)}: √{square root over (3)}: √{square root over (4)}: √{square root over (6)}: √{square root over (8)}: √{square root over (9)}: √{square root over (10)}: , , , [Mathematical expression 1] Ratio of Ia3d Cubic Liquid Crystal: √{square root over (3)}: √{square root over (4)}: √{square root over (7)}: √{square root over (8)}: √{square root over (10)}: √{square root over (11)}: , , , [Mathematical expression 2] Ratio of Im3m Cubic Liquid Crystal: √{square root over (2)}: √{square root over (4)}: √{square root over (6)}: √{square root over (8)}: √{square root over (10)}: √{square root over (12)}: √{square root over (14)}: , , , [Mathematical expression 3]
A peak value is calculated from SAXS data and then the reciprocal ratio is found therefrom according to a method known by persons skilled in the art, so that the space group and the lattice constant can be easily determined.
Mono-O-(5,9,13,17-tetramethyloctadec-4-enoyl)pentaerythritol and pure water were introduced into a mixing device at the concentration of 50 wt % Mono-O-(5,9,13,17-tetramethyloctadec-4-enoyl)pentaerythritol (water-excess condition), and incubation thereof was carried out while performing 100 or more times of mixing operations at room temperature (25° C.) over the period of 24 hours. Thus, a homogeneously mixed sample of mono-O-(5,9,13,17-tetramethyloctadec-4-enoyl)pentaerythritol/water system was obtained. This sample of mono-O-(5,9,13,17-tetramethyloctadec-4-enoyl)pentaerythritol/water system appeared to be a white turbid gel composition.
Subsequently, the thus obtained sample of mono-O-(5,9,13,17-tetramethyloctadec-4-enoyl)pentaerythritol/water system was confirmed to be a cubic liquid crystal by small-angle x-ray scattering (SAXS). The sample of mono-O-(5,9,13,17-tetramethyloctadec-4-enoyl)pentaerythritol/water system was introduced into a quartz X-ray capillary tube, the tip of the capillary was sealed using an oxygen burner, and the capillary tube was subjected to the SAXS analysis. The NANO-Viewer nano-scale X-ray structure analysis equipment (Rigaku) was used for SAXS analysis. SAXS analysis was performed by X-ray irradiation at room temperature (25° C.), 40 kV, 50 mA, wavelength λ=0.1542 nm (Cu-Kα) for 15 min.

[2] = Viscosity measurement with AR Rheometer (AR-G2) of the compounds of Examples 1-11; details: 25° C., after allowing to stand for 12 hours
Protocol: (§1) The amphipathic compound according to the present invention is in a liquid or a semi-solid state with low viscosity within relatively a wide temperature range. The amphipathic compound according to the present invention preferably has viscosity of 11 Pa·s or less, generally 10 Pa·s or less, more preferably 4.0 Pa·s or less (e.g., 3.5 Pa·s or less), and further preferably 2.0 Pa·s or less, as measured using a viscometer at 25° C., for example. Such measured viscosity is typically measured at a shear rate of 105.7 l/s. To obtain such a measured value, an AR Rheometer (AR-G2, TA Instrument) or a viscosity and viscoelasticity measuring apparatus MARS (Thermo Fisher Scientific K.K.) can be used as a viscometer.
The viscosity of each of the compounds shown in the Examples 1-11 was measured using AR Rheometer (AR-G2, TA Instrument) after allowing to stand at the temperature of 25° C. for 12 hours.

[3] = Viscosity measurement with viscosity and viscoelasticity measuring apparatus MARS (Example 179); details: 25° C., shear velocity 105.7 s^−1, MARS
Protocol: as §1
The viscosities of the amphiphilic compounds synthesized above were measured at 25° C. and at a shear velocity of 105.7 s^−1 using a viscosity and viscoelasticity measuring apparatus MARS (Thermo Fisher Scientific).

Compound: CC(=CCCCOC[C@H](O)[C@H](O)CO)CCCC(C)CCCC(C)CCCC(C)C (some centres unmarked) [1-O-(5,9,13,17-tetramethyloctadec-4-enyl)erythritol]
- Type of liquid crystal formed (SAXS peak ratio) [1]: reverse hexagonal liquid crystal
- Viscosity [2]: 2.3 Pa·s

Compound: CC(=CCCCOC(CO)C(O)CO)CCCC(C)CCCC(C)CCCC(C)C (centres unmarked) [2-O-(5,9,13,17-tetramethyloctadec-4-enyl)erythritol]
- Type of liquid crystal formed (SAXS peak ratio) [1]: cubic liquid crystal that belong to the crystallographic space group Pn3m
- Lattice constant (ac) of the cubic liquid crystal [1]: 8.9 nm
- Viscosity [2]: 3.2 Pa·s

Compound: CC(=CCCC(=O)OCC(CO)(CO)CO)CCCC(C)CCCC(C)CCCC(C)C (centres unmarked) [Example 1, mono-O-(5,9,13,17-tetramethyloctadec-4-enoyl)pentaerythritol]
- Type of liquid crystal formed (SAXS peak ratio) [1]: cubic liquid crystal that belong to the crystallographic space group Pn3m
- Lattice constant (ac) of the cubic liquid crystal [1]: 7.80 nm
- Viscosity [2]: 1.7 Pa·s

Compound: CC(=CCCC(=O)OC[C@H](O)[C@H](O)CO)CCCC(C)CCCC(C)CCCC(C)C (some centres unmarked) [Example 2, mono-O-(5,9,13,17-tetramethyloctadec-4-enoyl)erythritol]
- Type of liquid crystal formed (SAXS peak ratio) [1]: reverse hexagonal liquid crystal
- Viscosity [2]: 2.0 Pa·s

Compound: CC(=CCCC(=O)OCC(O)CO)CCCC(C)CCCC(C)CCCC(C)C (centres unmarked) [Example 3, mono-O-(5,9,13,17-tetramethyloctadec-4-enoyl)glycerol]
- Type of liquid crystal formed (SAXS peak ratio) [1]: cubic liquid crystal that belong to the crystallographic space group Pn3m

Compound: CC(=CCCCOC1OCC(O)C(O)C1O)CCCC(C)CCCC(C)CCCC(C)C [Example 9, 1-O-(5,9,13,17-tetramethyloctadec-4-enyl)-D-xylopyranoside]
- Type of liquid crystal formed (SAXS peak ratio) [1]: cubic liquid crystal that belong to the crystallographic space group Pn3m
- Lattice constant (ac) of the cubic liquid crystal [1]: 8.9 nm

Compound: CC(=CCCCOCC(CO)(CO)CO)CCCC(C)CCCC(C)CCCC(C)C (centres unmarked) [Example 10, mono-O-(5,9,13,17-tetramethyloctadec-4-enyl)pentaerythritol]
- Type of liquid crystal formed (SAXS peak ratio) [1]: reverse hexagonal liquid crystal
- Viscosity [2]: 1.9 Pa·s

Compound: CC(=CCCCOCC(O)CO)CCCC(C)CCCC(C)CCCC(C)C (centres unmarked) [Example 31, mono-O-(5,9,13,17-tetramethyloctadec-4-enyl)glycerol]
- Viscosity (Pas · sec) [3]: 0.44 Pas · sec

Compound: CC(=CCCCOCC(O)COCC(O)CO)CCCC(C)CCCC(C)CCCC(C)C (centres unmarked) [Example 32, mono-O-(5,9,13,17-tetramethyloctadec-4-enyl)diglycerol]
- Type of liquid crystal formed (SAXS peak ratio) [1]: cubic liquid crystal that belong to the crystallographic space group Pn3m

Compound: CC(=CC(=O)OCC(O)CO)CCCC(C)CCCC(C)CCCC(C)C (centres unmarked) [Example 65, mono-O-(3,7,11,15-tetramethylhexadec-2-enoyl)glycerol]
- Viscosity (Pas · sec) [3]: 1.1 Pas · sec

Compound: CC(=CC(=O)OCC(CO)(CO)CO)CCCC(C)CCCC(C)CCCC(C)C (centres unmarked) [Example 67, mono-O-(3,7,11,15-tetramethylhexadec-2-enoyl)pentaerythritol]
- Viscosity (Pas · sec) [3]: 10.6 Pas · sec

Compound: CC(=CC(=O)OCC(O)COCC(O)CO)CCCC(C)CCCC(C)CCCC(C)C (centres unmarked) [Example 68, mono-O-(3,7,11,15-tetramethylhexadec-2-enoyl)diglycerol]
- Viscosity (Pas · sec) [3]: 9.5 Pas · sec

Compound: CC(=CCOCC(O)CO)CCCC(C)CCCC(C)CCCC(C)C (centres unmarked) [Example 80, mono-O-(3,7,11,15-tetramethylhexadec-2-enyl)glycerol]
- Viscosity (Pas · sec) [3]: 0.45 Pas · sec

Compound: CC(=CCOCC(CO)(CO)CO)CCCC(C)CCCC(C)CCCC(C)C (centres unmarked) [Example 82, mono-O-(3,7,11,15-tetramethylhexadec-2-enyl)pentaerythritol]
- Viscosity (Pas · sec) [3]: 4.0 Pas · sec

Compound: CC(=CCCC(=O)OCC(O)CO)CCCC(C)CCCC(C)C (centres unmarked) [Example 92, mono-O-(5,9,13-trimethyltetradec-4-enoyl)glycerol]
- Type of liquid crystal formed (SAXS peak ratio) [1]: mixture of a cubic liquid crystal that belong to the crystallographic space group Pn3m and a reverse hexagonal liquid crystal
- Viscosity (Pas · sec) [3]: 0.48 Pas · sec

Compound: CC(=CCCC(=O)OCC(O)COCC(O)CO)CCCC(C)CCCC(C)C (centres unmarked) [Example 95, mono-O-(5,9,13-trimethyltetradec-4-enoyl)diglycerol]
- Viscosity (Pas · sec) [3]: 10.5 Pas · sec

Compound: CC(=CCCCOC1OCC(O)C(O)C1O)CCCC(C)CCCC(C)C [Example 103, 1-O-(5,9,13-trimethyltetradec-4-enyl)-D-xylopyranoside]
- Type of liquid crystal formed (SAXS peak ratio) [1]: cubic liquid crystal that belong to the crystallographic space group Pn3m

Compound: CC(=CCCCOCC(O)CO)CCCC(C)CCCC(C)C (centres unmarked) [Example 107, mono-O-(5,9,13-trimethyltetradec-4-enyl)glycerol]
- Type of liquid crystal formed (SAXS peak ratio) [1]: reverse hexagonal liquid crystal

Compound: CC(=CCCCOCC(CO)(CO)CO)CCCC(C)CCCC(C)C (centres unmarked) [Example 109, mono-O-(5,9,13-trimethyltetradec-4-enyl)pentaerythritol]
- Viscosity (Pas · sec) [3]: 0.98 Pas · sec

Compound: CC(=CCCCOCC(O)COCC(O)CO)CCCC(C)CCCC(C)C (centres unmarked) [Example 110, mono-O-(5,9,13-trimethyltetradec-4-enyl)diglycerol]
- Viscosity (Pas · sec) [3]: 1.7 Pas · sec

Compound: CC(=CCC(=O)OCC(O)CO)CCCC(C)CCCC(C)C (centres unmarked) [Example 120, mono-O-(4,8,12-trimethyltridec-3-enoyl)glycerol]
- Type of liquid crystal formed (SAXS peak ratio) [1]: cubic liquid crystal that belong to the crystallographic space group Pn3m

Compound: CC(=CC(=O)OCC(O)CO)CCCC(C)CCCC(C)C (centres unmarked) [Example 146, mono-O-(3,7,11-trimethyldodec-2-enoyl)glycerol]
- Type of liquid crystal formed (SAXS peak ratio) [1]: cubic liquid crystal that belong to the crystallographic space group Pn3m
- Viscosity (Pas · sec) [3]: 0.45 Pas · sec

Compound: CC(=CC(=O)OC[C@H](O)[C@H](O)CO)CCCC(C)CCCC(C)C (some centres unmarked) [Example 147, mono-O-(3,7,11-trimethyldodec-2-enoyl)erythritol]
- Viscosity (Pas · sec) [3]: 7.1 Pas · sec

Compound: CC(=CC(=O)OCC(O)COCC(O)CO)CCCC(C)CCCC(C)C (centres unmarked) [Example 149, mono-O-(3,7,11-trimethyldodec-2-enoyl)diglycerol]
- Viscosity (Pas · sec) [3]: 6.9 Pas · sec

Compound: CC(=CCOCC(CO)(CO)CO)CCCC(C)CCCC(C)C (centres unmarked) [Example 163, mono-O-(3,7,11-trimethyldodec-2-enyl)pentaerythritol]
- Viscosity (Pas · sec) [3]: 2.7 Pas · sec

Compound: CC(=CCOC[C@H](O)[C@@H](O)[C@H](O)CO)CCCC(C)CCCC(C)C (some centres unmarked) [Example 166, mono-O-(3,7,11-trimethyldodec-2-enyl)xylitol]
- Viscosity (Pas · sec) [3]: 1.1 Pas · sec

Compound: mono-O-(5,9,13,17-tetramethyloctadec-4-enoyl)di glycerol [Example 4]
- Type of liquid crystal formed (SAXS peak ratio) [1]: reverse hexagonal liquid crystal
- Viscosity (Pas · sec) [3]: 4.5 Pas · sec
